According to patent US11344510B2, “Arylcyclohexylamine derivatives and their use in the treatment of psychiatric disorders” (Gilgamesh Pharmaceuticals, Inc., priority 2019, dated 2022):
pIC50, pKi: −log10 of the molar value.

Assays:
[1] = target: T1, norepinephrine transporter (NET) (Homo sapiens, UniProt P23975); assay: Fluorescent substrate uptake inhibition, NET; assay type: cell-based; details: for inhibition at 10 µM: HEK293 cells expressing NET
T1 construct: expressed in transfected cells; host or cells: HEK293
Method: (§1) Uptake Inhibition. The ability of test compounds to block monoamine uptake by SERT, NET, DAT, and VMAT2 was determined using the Neurotransmitter Transporter Uptake Assay Kit manufactured by Molecular Devices (Cat #R8173). Briefly, stably transfected cells expressing the MAT of interest (HEK293 cells for SERT and NET; CHO cells for DAT) were grown and plated into 384-well plates at a concentration of 20,000 cells per well. Plates were then incubated for 16-20 h at 37° C. and 5% CO2. The medium was then aspirated and replaced with 25 μL of assay buffer (20 mM HEPES in HBSS, containing 0.1% BSA) containing the test compounds at the appropriate concentrations. Plates were then centrifuged at 300 rpm for 15 s and then incubated at 37° C. for 30 minutes. At this time, 25 μL of the proprietary fluorescent dye solution was added, the plates were incubated at 37° C. for 60 minutes, and then fluorescence was quantified on a plate reader (excitation wavelength=440 nm, emission wavelength=520 nm). The proprietary dye solution contains a mixture of 1) a fluorescent dye that mimics the endogenous substrates of MATs and is thereby actively transported to the intracellular compartment in the absence of an inhibitor and 2) a masking dye that inhibits the fluorescence of dye 1 in the extracellular compartment. Therefore, the overall fluorescence of the system increases as the fluorescent dye is transported into the cells.

[2] = HLM stability (High Activity); assay type: in vitro ADME; details: both sexes, human, liver microsomes, pH 7.4, Condition 2 (High Activity), 1.0 mg protein/mL
Method: (§2) HLM Stability (High Activity). Pooled HLM from adult male and female donors (XenoTech H0630) were used. Microsomal incubations were carried out in 96-well plates in 5 aliquots of 40 μL, each (one for each time point). Liver microsomal incubation medium consisted of PBS (100 mM, pH 7.4), MgCl2 (3.3 mM), NADPH (3 mM), glucose-6-phosphate (5.3 mM), and glucose-6-phosphate dehydrogenase (0.67 units/mL), with 1.0 mg of liver microsomal protein per mL. Control incubations were performed by replacing the NADPH-cofactor system with PBS. Test compounds (1 μM, final solvent concentration 1.6%) were incubated with microsomes at 37° C., shaking at 100 rpm. Incubations were performed in duplicate. Five time points over 60 minutes were analyzed. The reactions were stopped by adding 12 volumes of 90% acetonitrile-water to incubation aliquots, followed by protein sedimentation by centrifugation at 5500 rpm for 3 minutes. Supernatants were analyzed for parent compound remaining using a fit-for-purpose liquid chromatography-tandem mass spectrometry (LC-MS/MS) method, with authentic samples of each analyte used for identity confirmation.
(§3) Data Analysis. The elimination constant (kel), half-life (t1/2) and intrinsic clearance (Clint) were determined in a plot of […] versus time, using linear regression analysis.

[3] = MLM stability (High Activity); assay type: in vitro ADME, BALB/c mice; details: male, BALB/c, mouse, liver microsomes, pH 7.4, Condition 2 (High Activity), 1.0 mg protein/mL
Method: as §2, with “MLM” for “HLM”, “from” for “from adult”, “BALB/c mice” for “and female donors”, “M3000)” for “H0630)”, “μL” for “μL,”, “9” for “12”
as §3

[4] = target: T2, serotonin transporter (SERT) (Homo sapiens, UniProt P31645); assay: Fluorescent substrate uptake inhibition, SERT; assay type: cell-based; details: for inhibition at 10 µM: HEK293 cells expressing SERT
T2 construct: expressed in transfected cells; host or cells: HEK293
Method: as §1

[5] = target: T3, vesicular monoamine transporter 2 (VMAT2) (Homo sapiens, UniProt Q05940); assay: Fluorescent substrate uptake inhibition, VMAT2; assay type: cell-based; details: for inhibition at 10 µM: transfected cells
T3 construct: expressed in transfected cells
Method: as §1

[6] = RLM stability (High Activity); assay type: in vitro ADME, Sprague Dawley rats; details: male, Sprague Dawley, rat, liver microsomes, pH 7.4, Condition 2 (High Activity), 1 μM, 1.0 mg protein/mL
Method: as §2, with “RLM” for “HLM”, “from” for “from adult”, “Sprague Dawley rats” for “and female donors”, “R1000, lot #1910100)” for “H0630)”, “μL” for “μL,”, “9” for “12”
as §3

[7] = target: T4, dopamine transporter (DAT) (Homo sapiens, UniProt Q01959); assay: Fluorescent substrate uptake inhibition, DAT; assay type: cell-based; details: for inhibition at 10 µM: CHO cells expressing DAT
T4 construct: expressed in transfected cells; host or cells: CHO (uptake)
Method: as §1

[8] = target: MK-801 binding site of the N-methyl-D-aspartate receptor (NMDAR); assay: NMDAR radioligand binding with [3H]MK-801, Method B; set-up: species or system Sprague Dawley rat; details: MK-801 site, Method B, male Sprague Dawley rat cortex, 5.0 nM [3H]MK-801; read-out: NMDAR Ki ± SEM
Method: Radioligand Binding—Method B. Affinity of the test compounds for NMDAR was determined in radioligand binding experiments with [^3H]MK-801 by WuXi AppTec (Hong Kong) Limited, under the conditions described in Table 13.

[9] = RLM stability (Low Activity); assay type: in vitro ADME, Sprague Dawley rats; details: male, Sprague Dawley, rat, liver microsomes, pH 7.4, Condition 1 (Low Activity), 0.50 mg protein/mL
Method: (§4) RLM Stability (Low Activity). Pooled RLM from male Sprague Dawley rats (XenoTech R1000) were used. Microsomal incubations were carried out in multi-well plates. Liver microsomal incubation medium consisted of PBS (100 mM, pH 7.4), MgCl2 (1 mM), and NADPH (1 mM), with 0.50 mg of liver microsomal protein per mL. Control incubations were performed by replacing the NADPH-cofactor system with PBS. Test compounds (1 μM, final solvent concentration 1.0%) were incubated with microsomes at 37° C. with constant shaking. Six time points over 60 minutes were analyzed, with 60 μL aliquots of the reaction mixture being drawn at each time point. The reaction aliquots were stopped by adding 180 μL of cold (4° C.) acetonitrile containing 200 ng/mL tolbutamide and 200 ng/mL labetalol as internal standards (IS), followed by shaking for 10 minutes, and then protein sedimentation by centrifugation at 4000 rpm for 20 minutes at 4° C. Supernatant samples (80 μL) were diluted with water (240 μL) and analyzed for parent compound remaining using a fit-for-purpose liquid chromatography-tandem mass spectrometry (LC-MS/MS) method.
as §3

[10] = MLM stability (Low Activity); assay type: in vitro ADME, CD-1 mice; details: male, CD-1, mouse, liver microsomes, pH 7.4, Condition 1 (Low Activity), 0.50 mg protein/mL
Method: as §4, with “MLM” for “RLM”, “CD-1 mice” for “Sprague Dawley rats”, “M1000)” for “R1000)”
as §3

[11] = HLM stability (Low Activity, Alternative Method); assay type: in vitro ADME; details: both sexes, human, liver microsomes, pH 7.4, Condition 1 column, values marked *: Low Activity, 0.50 mg protein/mL
Method: as §4, with “HLM” for “RLM”, “Activity, Alternative Method).” for “Activity).”, “from adult” for “from”, “and female donors (Corning 452117)” for “Sprague Dawley rats (XenoTech R1000)”
as §3

T2 sequence (P31645 whole entry, species assumed): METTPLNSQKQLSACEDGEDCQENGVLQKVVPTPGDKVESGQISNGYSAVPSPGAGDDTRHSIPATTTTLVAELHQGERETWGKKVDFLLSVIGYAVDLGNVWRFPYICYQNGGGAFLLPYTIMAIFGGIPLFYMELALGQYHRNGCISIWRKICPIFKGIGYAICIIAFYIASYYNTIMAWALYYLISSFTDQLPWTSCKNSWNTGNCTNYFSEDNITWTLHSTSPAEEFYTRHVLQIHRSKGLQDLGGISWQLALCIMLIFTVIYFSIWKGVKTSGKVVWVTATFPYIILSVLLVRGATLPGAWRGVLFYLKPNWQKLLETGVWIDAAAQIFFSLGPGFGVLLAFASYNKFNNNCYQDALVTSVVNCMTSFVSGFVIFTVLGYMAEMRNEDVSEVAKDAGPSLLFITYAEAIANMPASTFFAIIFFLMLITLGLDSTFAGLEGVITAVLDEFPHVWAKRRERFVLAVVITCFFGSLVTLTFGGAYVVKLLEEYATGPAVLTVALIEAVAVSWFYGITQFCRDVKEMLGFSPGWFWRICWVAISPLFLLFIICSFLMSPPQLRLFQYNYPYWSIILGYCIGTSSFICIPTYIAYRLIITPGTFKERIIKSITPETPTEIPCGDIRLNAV
T1 sequence (P23975 whole entry, species assumed): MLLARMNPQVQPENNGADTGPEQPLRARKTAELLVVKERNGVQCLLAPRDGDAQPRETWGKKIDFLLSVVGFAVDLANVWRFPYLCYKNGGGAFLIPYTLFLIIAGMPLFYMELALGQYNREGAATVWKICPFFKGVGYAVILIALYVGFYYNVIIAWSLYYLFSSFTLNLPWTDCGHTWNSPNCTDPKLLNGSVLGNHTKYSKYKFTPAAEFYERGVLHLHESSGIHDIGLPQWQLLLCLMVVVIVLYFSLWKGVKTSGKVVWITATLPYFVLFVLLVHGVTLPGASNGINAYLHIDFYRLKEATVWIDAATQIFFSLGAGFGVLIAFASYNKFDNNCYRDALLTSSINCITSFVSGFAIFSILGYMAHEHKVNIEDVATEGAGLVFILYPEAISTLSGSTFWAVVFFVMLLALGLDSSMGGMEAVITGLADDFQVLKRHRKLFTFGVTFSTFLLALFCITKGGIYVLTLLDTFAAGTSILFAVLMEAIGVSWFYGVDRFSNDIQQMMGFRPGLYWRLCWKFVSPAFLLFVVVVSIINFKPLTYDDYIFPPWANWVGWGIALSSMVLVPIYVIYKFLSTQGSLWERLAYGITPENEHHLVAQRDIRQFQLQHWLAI
T4 sequence (Q01959 whole entry, species assumed): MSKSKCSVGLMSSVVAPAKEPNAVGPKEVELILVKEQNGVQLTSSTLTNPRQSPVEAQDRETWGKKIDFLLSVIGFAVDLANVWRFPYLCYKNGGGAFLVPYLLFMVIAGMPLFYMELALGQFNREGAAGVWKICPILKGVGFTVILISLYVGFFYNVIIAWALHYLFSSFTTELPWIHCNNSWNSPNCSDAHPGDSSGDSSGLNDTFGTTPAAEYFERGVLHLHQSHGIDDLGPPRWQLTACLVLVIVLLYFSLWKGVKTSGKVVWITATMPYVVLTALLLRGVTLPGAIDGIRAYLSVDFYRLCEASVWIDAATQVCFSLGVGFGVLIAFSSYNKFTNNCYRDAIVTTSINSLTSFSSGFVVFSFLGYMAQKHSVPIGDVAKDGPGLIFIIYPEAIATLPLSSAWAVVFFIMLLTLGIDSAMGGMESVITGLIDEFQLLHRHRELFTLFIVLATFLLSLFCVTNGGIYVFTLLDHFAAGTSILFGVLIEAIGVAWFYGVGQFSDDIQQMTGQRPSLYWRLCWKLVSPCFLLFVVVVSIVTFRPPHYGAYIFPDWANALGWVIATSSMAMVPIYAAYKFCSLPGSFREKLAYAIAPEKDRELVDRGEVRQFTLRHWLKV
T3 sequence (Q05940 whole entry, species assumed): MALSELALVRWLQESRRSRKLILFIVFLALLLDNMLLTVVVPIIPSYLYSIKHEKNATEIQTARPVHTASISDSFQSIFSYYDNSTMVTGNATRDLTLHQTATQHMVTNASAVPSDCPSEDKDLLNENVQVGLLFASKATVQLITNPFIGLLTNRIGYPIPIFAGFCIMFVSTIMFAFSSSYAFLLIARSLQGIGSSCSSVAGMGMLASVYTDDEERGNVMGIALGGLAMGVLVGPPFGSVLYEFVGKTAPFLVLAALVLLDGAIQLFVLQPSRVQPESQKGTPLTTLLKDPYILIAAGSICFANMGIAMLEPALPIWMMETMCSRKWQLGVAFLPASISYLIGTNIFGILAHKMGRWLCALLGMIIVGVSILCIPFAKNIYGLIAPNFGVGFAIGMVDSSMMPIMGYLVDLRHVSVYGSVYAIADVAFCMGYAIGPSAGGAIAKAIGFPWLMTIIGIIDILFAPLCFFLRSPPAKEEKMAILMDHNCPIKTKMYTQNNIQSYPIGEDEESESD

| SMILES | inhibition at 10 µM [1] [%] | inhibition at 10 µM [4] [%] | inhibition at 10 µM [5] [%] | inhibition at 10 µM [7] [%] | pKi [8] | half-life at 1 μM [9] [min] | microsomal CLint at 1 μM [9] [µL/min/mg] | half-life at 1 μM [10] [min] | microsomal CLint at 1 μM [10] [µL/min/mg] | half-life at 1 μM [11] [min] | microsomal CLint at 1 μM [11] [µL/min/mg] | also measured |
| --- | --- | --- | --- | --- | --- | --- | --- | --- | --- | --- | --- | --- |
| CN[C@@]1(c2cccc(F)c2)CCCCC1=O [Compound 19R, (R)-2-(3-fluorophenyl)-2-(methylamino)cyclohexan-1-one] | 8.8 | 20.9 | 11 | -10.7 | 5.17 |  |  |  |  |  |  | half-life at 1 μM [2]: 136 min; microsomal CLint at 1 μM [2]: 5 µL/min/mg; half-life at 1 μM [3]: 59.9 min; microsomal CLint at 1 μM [3]: 12 µL/min/mg; half-life at 1 μM [6]: 11.7 min; microsomal CLint at 1 μM [6]: 59 µL/min/mg |
| O=C1CCCC[C@]1(c1ccccc1)N1CCCC1 [Compound 27R, (R)-2-phenyl-2-(pyrrolidin-1-yl)cyclohexan-1-one] |  |  |  |  | 5.51 | 55.9 | 24.8 | 40.4 | 34.3 | > 145 | < 9.6 | pIC50 [1]: 4.76; pIC50 [4]: 5.68; pIC50 [5]: 4.74; pIC50 [7]: 4.68 |
| CC1CN(C2(c3ccccc3)CCCCC2=O)C1 (racemic) [Compound 129rac, 2-(3-methylazetidin-1-yl)-2-phenyl-cyclohexan-1-one] | 10.6 | 28 | 31.9 | 35.8 | 6.28 | 24.1 | 57.5 | 9.3 | 149 | 134 | 10.4 |  |
| COCCN[C@]1(c2ccccc2)CCCCC1=O [Compound 29S, (5)-2-((2-methoxyethyl)amino)-2-phenylcyclohexan-1-one] | 4 | -12.9 | -10.5 | 13.7 | 5.09 | 31.8 | 43.6 | 35.7 | 35.8 | > 145 | < 9.6 |  |
| NC1(c2ccc(F)cc2)CCCCC1=O (racemic) [Compound 117rac, 2-amino-2-(4-fluorophenyl)cyclohexan-1-one] | 5 | -0.91 | 17.1 | 6.8 | 5.08 | > 145 | < 9.6 | > 145 | < 9.6 | > 145 | < 9.6 |  |
